Consider 2 compounds from PMC6832952, “Synthesis and Evaluation of Pyrimidine Steroids as Antiproliferative Agents” (Molecules, 2019).

For orientation: melting point means the temperature of the solid-liquid transition.

Where only a bound is given, the exact number is not on record here.

The subject of series [1] is A549 (non-small cell lung) cells. Description: Growth inhibition assay (NCI protocol), A549. The series is classed as cell-based, human. The note with it: 48 h exposure. From the text:
(§1) We studied the antiproliferative activity of α,β-unsaturated ketones (2 and 6) and steroidal pyrimidines (3 and 7) against human cell lines following the guidelines of the National Cancer Institute. For the tests we selected five human solid tumor cell lines from diverse origins and one human fibroblast cell line as a model of non-tumor cells. These cell lines were chosen as representative of drug sensitive (A549, HBL-100, and HeLa) and drug resistant (T-47D and WiDr) monolayer cultures based on previous studies. The steroidal anticancer drugs abiraterone and galeterone were also tested for comparison purposes. […] This is a relevant finding, since our compounds are non-toxic to healthy cells, whilst the steroidal anticancer drugs inhibit the growth of fibroblasts at GI50 values as low as 4.5–5 µM.
(§2) The following densities (cells per well) were used: 2500 (A549, HBL-100, HeLa and SW1573), 5000 (T-47D, WiDr and SW1573/PGP), and 7000 (BJ-hTERT). […] Abiraterone and galeterone were used as reference drugs for antiproliferative tests, verapamil was used as a P-gp transport inhibitor in SW1573/Pgp experiments, and their stock solutions were prepared in DMSO at 40 mM. Paclitaxel and vinblastine were used as positive controls in SW1573/Pgp experiments and were initially dissolved in DMSO at 4 mM. For each test compound, the cells were exposed to serial decimal dilutions in the range of 0.001–100 μM for a period of 48 h. Cell culture medium containing verapamil was prepared by adding the final concentration of verapamil of 10 μM. For each product GI50 values were calculated according to the NCI formulas.

The test system of series [2] is HBL-100 (breast) cells. Kind of series: Growth inhibition assay (NCI protocol), HBL-100. The series is classed as cell-based, human. The note with it: 48 h exposure.
Text: as §1, §2

The subject of series [3] is HeLa (cervix) cells. Description: Growth inhibition assay (NCI protocol), HeLa. The note with it: 48 h exposure. The series is classed as cell-based, human.
Text: as §1, §2

The test system of series [4] is T-47D (breast) cells. Description: Growth inhibition assay (NCI protocol), T-47D. The series is classed as cell-based, human. Particulars: 48 h exposure.
Text: as §1, §2

The subject of series [5] is WiDr (colon) cells. Kind of series: Growth inhibition assay (NCI protocol), WiDr. The series is classed as cell-based, human. Particulars: 48 h exposure.
Text: as §1, §2

Series [6] concerns BJ-hTERT human fibroblast cells. Description: Growth inhibition assay (NCI protocol), BJ-hTERT fibroblasts. Particulars: 48 h exposure; non-tumor cells. The series is classed as cell-based.
Text: as §1, §2

The subject of series [7] is SW1573 (non-small cell lung) cells. Kind of series: Growth inhibition assay, SW1573 wild type. The series is classed as cell-based, human. The note with it: 48 h, without verapamil; read-out: GI50 SW1573 w/o Verapamil. From the text:
(§3) Next, we studied if the compounds could be substrates for P-glycoprotein 1 (P-gp). P-gp is an important protein of the cell membrane that pumps xenobiotics out of cells. One of the resistance mechanisms to anticancer drugs involves the overexpression of P-gp by cancer cells, rendering these cancers multidrug resistant. Therefore, it is relevant to know whether compounds are substrates for P-gp or not. As a model to test the effect of P-gp overexpression in our compounds, we used a cell line-based assay. We selected one wild type human lung cancer cell line (SW1573) and its P-gp overexpressing variant (SW1573/PGP). In this test, cells were exposed to the compounds for 48 h in the absence or the presence of 10 µM verapamil, a well-known P-gp inhibitor [20].
(§4) The human solid tumor cell lines A549 (non-small cell lung), HBL-100 (breast), and HeLa (cervix), SW1573 (non-small cell lung), and its P-gp overexpressing variant (SW1573/Pgp), T-47D (breast), and WiDr (colon) were used in this study. These cell lines used in this study were kindly provided by Dr. Godefridus J. Peters (Cancer Center Amsterdam, Vrije Universiteit, Amsterdam, The Netherlands). BJ-hTERT human fibroblast cells were given by Dr. Raimundo Freire (Universidad de La Laguna, Canary Islands). All cells were grown in RPMI 1640 supplemented with 1 mM glutamine, 5% FBS and antibiotics. Cells were grown at 37 °C in a humidified atmosphere of 5% CO2 and maintained at low passage.
(§5) The antiproliferative activity was tested in vitro against human cancer cells using the protocol of the National Cancer Institute (NCI) of the USA16 with minor modifications. The following densities (cells per well) were used: 2500 (A549, HBL-100, HeLa and SW1573), 5000 (T-47D, WiDr and SW1573/PGP), and 7000 (BJ-hTERT). Samples for testing were dissolved initially in DMSO at 40 mM, i.e., 400 times the maximum test concentration. Abiraterone and galeterone were used as reference drugs for antiproliferative tests, verapamil was used as a P-gp transport inhibitor in SW1573/Pgp experiments, and their stock solutions were prepared in DMSO at 40 mM. Paclitaxel and vinblastine were used as positive controls in SW1573/Pgp experiments and were initially dissolved in DMSO at 4 mM. For each test compound, the cells were exposed to serial decimal dilutions in the range of 0.001–100 μM for a period of 48 h. Cell culture medium containing verapamil was prepared by adding the final concentration of verapamil of 10 μM. For each product GI50 values were calculated according to the NCI formulas.

In series [8] the test system is SW1573/PGP cells. Description: in vitro.
Text: as §3, §4, §5

Series [9] in a line: Solubility under protocol conditions. The series is classed as physicochemical. The note with it: growth inhibition protocol conditions.
Text: as §1
The following densities (cells per well) were used: 2500 (A549, HBL-100, HeLa and SW1573), 5000 (T-47D, WiDr and SW1573/PGP), and 7000 (BJ-hTERT). […] Abiraterone and galeterone were used as reference drugs for antiproliferative tests, verapamil was used as a P-gp transport inhibitor in SW1573/Pgp experiments, and their stock solutions were prepared in DMSO at 40 mM. Paclitaxel and vinblastine were used as positive controls in SW1573/Pgp experiments and were initially dissolved in DMSO at 4 mM. […] For each product GI50 values were calculated according to the NCI formulas.

For the compound “20-Oxopregna-5,16-dien-3β-yl Acetate [Compound 6]”, the GI50 in series [1] was 26 ± 5.2 µM; in series [2], 64 ± 1.6 µM; in series [3], 3.6 ± 0.4 µM; in series [4], 29 ± 4.5 µM; in series [5], 37 ± 2.1 µM; in [6] it was above 100 µM. Besides, the GI50 in [7] was 72 ± 10 µM; in series [8], above 100 µM.
The compound `CC1=C2C(CC3C4CC=C5C[C@@H](O)CC[C@]5(C)C4CC[C@]23C)NC(=N)N1` (stereo partly drawn) [Compound 7a, 1′,3′-dihydro-2′-imino-4′-methylpyrimidin-(6′,5′:16,17)-androst-5-en-3β-ol] had a melting point of 108 to 110 °C. In addition, the “solubility under protocol conditions” value in [9] is given as “poor solubility”.
